Read-outs that look alike come from different tables or passages of the source.
Tests used:
[1] = tested on: production of Interleukin-2 (IL-2) by Human Jurkat T Cells; assay: Inhibition of production of interleukin-2 (IL-2) by human Jurkat T cells (Raji/Jurkat co-culture, anti-CD3, IL-2 ELISA); type: cell-based; settings: at 30 μM, read-out: inhibition of IL-2 production
Protocol: • Collins A V et al. (2002) Immunity 17, 201-210 “The interaction properties of costimulatory molecules revisited” Inhibition of Production of Interleukin-2 (IL-2) by Human Jurkat T Cells. Method
Human Raji cells were dispensed at a concentration of 2×10^5 cells per well in RPMI-1640 medium supplemented with 10% fetal calf serum, 1% penicillin/streptomycin, 1% glutamine (RPMI medium) in a 96-well round bottom microtitre plate. Compounds under investigation (dissolved in 100% DMSO) were diluted to eight-fold the desired final concentration in RPMI medium and added to the required final concentration for a total volume of 200 μl per well. After 20 minutes incubation at 37° C., Jurkat T cells were added at a concentration of 2×10^5 cells per well. Monoclonal antibody to CD3 (UCHT1, R&D Systems) was added to the cultures at a final concentration of 1 μg per ml, and where indicated, monoclonal antibody to CD28 (CD28.2, BD-Pharmingen) was also added at a concentration of 2.5 μg per ml. Cells were cultured at 37° C. for 5 hours, after which the plates were centrifuged and the supernatants harvested for IL-2 ELISA assay using the IL-2 Eli-pair kit (DIACLONE Research, Besancon, France) according to the manufacturers instructions.

CD80-CD28 interaction = biological target: T1, CD80-CD28 interaction (Homo sapiens, UniProt P33681); assay: Homogenous Time Resolved Fluorescence (HTRF) assay, cell free; type: binding; settings: inhibition of the CD80-CD28 interaction, 4 hours at room temperature; read-out: EC50 activity in the HTRF assay
T1 sequence (P33681 35-242 limits assumed): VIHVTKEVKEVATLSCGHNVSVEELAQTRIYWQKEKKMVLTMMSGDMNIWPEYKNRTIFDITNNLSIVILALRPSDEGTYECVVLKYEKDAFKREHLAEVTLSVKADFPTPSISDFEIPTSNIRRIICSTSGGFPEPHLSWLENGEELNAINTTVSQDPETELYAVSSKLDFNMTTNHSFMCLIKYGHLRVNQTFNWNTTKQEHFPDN
In short: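 Europium and APC labels were linked through antibodies to CD28 and CD80 fusion proteins. Compounds were tested at 100 μM-1.7 nM for 4 h at room temperature in 50 mM Tris-HCl, 150 mM NaCl pH7.8, 0.1% BSA. Emission read at 665 and 615 nm (excitation 340 nm); non-specific signal measured with C215 Fab in place of CD80; EC50 reported in bands.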

[2] = biological target: T2, Biotinylated human CD80 (hCD80-BT) (Homo sapiens, UniProt P33681); assay: BIAcore biomolecular interaction analysis, binding to immobilised hCD80-BT; design: off-rate on CD80: unit not given here; settings: BIAcore S51, immobilised hCD80-BT
T2 construct: biotin (biotinylated)
T2 sequence (P33681 35-242 limits assumed): T1 sequence (P33681 35-242 limits assumed)
Description: The Use of BIAcore Biomolecular Interaction Analysis
Biotinylated human CD80 (hCD80-BT) is a recombinant soluble form of a membrane bound receptor molecule (CD80) which binds to CD28 to initiate T cell activation. The interaction between CD80 and CD28 has been extensively investigated (Collins et al, 2002). Biotinlyated human HLA-A2-tax is the recombinant soluble form of a membrane bound receptor molecule that has been used in this example as a control protein, and is not expected to interact with the compounds.
The BIAcore S51™ system was used for screening the compounds of Examples 1-4 above. A series S sensor chip CM5 was docked onto the BIAcore S51™. Streptavidin was coupled to the carboxymethyl surface using standard amine coupling. The chip surface was activated with 0.2M EDC/0.05M NHS, followed by binding of streptavidin (0.25 mg/ml in 10 mM sodium acetate pH 5.0) and saturation of unoccupied sites with […].
The BIAcore S51 sensor chip has two separate sensor spots for immobilisation of proteins. hCD80-BT was immobilised on the streptavidin-coated surface of one sensor spot until a response of approximately 3000 RU was observed. A protein to control for non-specific binding of the compound was immobilised on a second sensor spot. The control protein used for these experiments was a biotinylated, soluble form of the human HLA protein.
Dilution series of compounds (1000 nM-0.05 nM) were prepared in running buffer (10 mM, pH 7.4, 150 mM NaCl, 0.005% P20; 5% DMSO).
BIAcore S51™ was run at a flow rate of 30 μl/min using running buffer. Compounds and DMSO standard solutions for correction of data for solvent effects were injected. Data were recorded automatically and were analysed using BIAcore S51 Evaluation software.

[3] = biological target: T2, Biotinylated human CD80 (hCD80-BT); settings: CD80/CD28 interaction, cited from earlier work

CN(C)CCCNC(=O)c1ccc(-n2[nH]c3c(nnc4ccccc43)c2=O)cc1 [Example 2, N-[(dimethylamino)propyl]-4-(3-oxo-1,3-dihydro-2H-pyrazolo[4,3-c]cinnolin-2-yl)benzamide] gave an inhibition at 30 µM [1] of 65%, an EC50 (CD80-CD28 interaction) of less than 1 µM and a Kd [2] of less than 0.1 µM. The “off-rate on CD80” value [2] was 2×10^−2.
In the case of O=C(NCc1ccccc1)c1ccc(-n2[nH]c3c(nnc4ccccc43)c2=O)cc1 [Example 3, N-benzyl-4-(3-oxo-1,3-dihydro-2H-pyrazolo[4,3-c]cinnolin-2-yl)benzamide], the EC50 (CD80-CD28 interaction) is reported as less than 1 µM, the Kd [2] is reported as less than 0.1 µM and the “off-rate on CD80” value [2] is reported as 2×10^−2.
With O=C(NCCCNC1CCCCC1)c1ccc(-n2[nH]c3c(nnc4ccccc43)c2=O)cc1 [Example 4, N-[(cyclohexylamino)propyl]-4-(3-oxo-1,3-dihydro-2H-pyrazolo[4,3-c]cinnolin-2-yl)benzamide] the EC50 (CD80-CD28 interaction) was less than 1 µM, the Kd [2] was less than 0.1 µM and the “off-rate on CD80” value [2] was 2×10^−2.
In the case of O=C(NCCCCN1CCCC1)c1ccc(-n2[nH]c3c(nnc4c(F)cccc43)c2=O)cc1 [Example 6, 4-(6-fluoro-3-oxo-1,3-dihydro-2H-pyrazolo[4,3-c]cinnolin-2-yl)-N-(pyrrolidin-1-yl-butyl)benzamide], the EC50 (CD80-CD28 interaction) is reported as less than 1 µM, the Kd [2] is reported as less than 0.1 µM and the “off-rate on CD80” value [2] is reported as 2×10^−2.
With CN1C(C)(C)CC(NC(=O)c2ccc(-n3[nH]c4c(nnc5c(F)cccc54)c3=O)cc2)CC1(C)C [Example 7, 4-(6-fluoro-3-oxo-1,3-dihydro-2H-pyrazolo[4,3-c]cinnolin-2-yl)-n-(1,2,2,6,6-pentamethylpiperidine-4-yl)benzamide] the EC50 (CD80-CD28 interaction) was less than 1 µM, the Kd [2] was less than 0.1 µM and the “off-rate on CD80” value [2] was 2×10^−2.
In the case of “CD28: "the endogenous protein ligand (CD28)" of CD80; "CD28 on T-cells"”, the “off-rate of CD80 interaction with endogenous protein ligand” value [3] is listed as “greater than 0.2 s^−1” and the Kd ([3]; read-out: KD of CD80 interaction with endogenous protein ligand) is listed as 4.75 µM.

Source: patent publication US8309552B2, “Immunomodulating heterocyclic compounds” (Medigene AG, priority 2003, dated 2012)
